Experimental data reported in ChEMBL document CHEMBL1201862, “PubChem BioAssay data set” (2004).
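1) Cells in 96-well plates. 2) Compound, 48 h, 5 concentrations. 3) Linear interpolation between surrounding doses. 4) Unreached endpoint = highest concentration. Here, GI50 denotes the concentration required for 50% inhibition of growth.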 Active and inactive are the calls of the source. No stated cut-off is given here; in the data, active = GI50 up to about 1.1 µM and inactive = higher.

Key:
Assay in all cases: NCI-60 cell line screen, 48 h
SK-MEL-5 = test system: SK-MEL-5
KM12 = test system: KM12
786-0 = test system: 786-0
MCF7 = test system: MCF7
Malme-3M = test system: Malme-3M
DU-145 = test system: DU-145
A549 = test system: A549
COLO 205 = test system: COLO 205
EKVX = test system: EKVX
NCI/ADR-RES = test system: NCI/ADR-RES
T47D = test system: T47D
NCI-H226 = test system: NCI-H226
NCI-H460 = test system: NCI-H460
SF-268 = test system: SF-268
MDA-N = test system: MDA-N
HCT-15 = test system: HCT-15
NCI-H23 = test system: NCI-H23
HT-29 = test system: HT-29
ACHN = test system: ACHN
SF-539 = test system: SF-539

SMILES	GI50 (SK-MEL-5)	GI50 (KM12)	GI50 (786-0)	GI50 (MCF7)	GI50 (Malme-3M)	GI50 (DU-145)	GI50 (A549)	GI50 (COLO 205)	GI50 (EKVX)	GI50 (NCI/ADR-RES)	GI50 (T47D)	GI50 (NCI-H226)	GI50 (NCI-H460)	GI50 (SF-268)	GI50 (MDA-N)	GI50 (HCT-15)	GI50 (NCI-H23)	GI50 (HT-29)	GI50 (ACHN)	GI50 (SF-539)
O=c1c2ccccc2n2c(S)nnc2n1-c1ccccc1	> 100 µM (inactive)	> 100 µM (inactive)	> 100 µM (inactive)	> 100 µM (inactive)	> 100 µM (inactive)	> 100 µM (inactive)	> 100 µM (inactive)	> 100 µM (inactive)	> 100 µM (inactive)	> 100 µM (inactive)	> 100 µM (inactive)	> 100 µM (inactive)	> 100 µM (inactive)	> 100 µM (inactive)	> 100 µM (inactive)	> 100 µM	> 100 µM (inactive)	> 100 µM (inactive)	> 100 µM (inactive)	> 100 µM (inactive)
Cc1ccc(/N=N/c2ccc(O)c(CN(C)C)c2)cc1	14.5 µM (inactive)	15.8 µM (inactive)	22.3 µM (inactive)	24.2 µM (inactive)	16.7 µM (inactive)	17.8 µM (inactive)	20.3 µM (inactive)	17.7 µM (inactive)	22.6 µM (inactive)	22.6 µM (inactive)	13.7 µM (inactive)	20.9 µM (inactive)	16.5 µM (inactive)	20.2 µM (inactive)	16.2 µM (inactive)	20.6 µM	36.1 µM (inactive)	17.2 µM (inactive)	17.3 µM (inactive)	17.7 µM (inactive)
COC(=O)[C@@H](NC(=O)[C@H](N)Cc1ccc(N(CCCl)CCCl)cc1)C(C)C	1.78 µM (inactive)	25.1 µM (inactive)	8.65 µM (inactive)	12.5 µM (inactive)	1.92 µM (inactive)	8.57 µM (inactive)	18.2 µM (inactive)	16.9 µM (inactive)	34 µM (inactive)	12.6 µM (inactive)	2.86 µM (inactive)	18.7 µM (inactive)	10.1 µM (inactive)	10.6 µM (inactive)	23.3 µM (inactive)	18.4 µM	3.66 µM (inactive)	24.6 µM (inactive)	3.56 µM (inactive)	7.91 µM (inactive)
COC(=O)C1(Cc2ccccc2)Cc2cc3c(cc2C1)CCC3	17.2 µM (inactive)	22.3 µM (inactive)	31.3 µM (inactive)	15.5 µM (inactive)	22.3 µM (inactive)	34.5 µM (inactive)	29.6 µM (inactive)	16.7 µM (inactive)	21.5 µM (inactive)	35.5 µM (inactive)	18.2 µM (inactive)	22 µM (inactive)	33.3 µM (inactive)	41.4 µM (inactive)	16 µM (inactive)	28.4 µM	38.5 µM (inactive)	10.5 µM (inactive)	30 µM (inactive)	41.3 µM (inactive)
C1=CC2C=CC(C=C1)P2c1ccccc1 (stereo not given)	> 100 µM (inactive)	> 100 µM (inactive)	> 100 µM (inactive)	> 100 µM (inactive)	> 100 µM (inactive)	> 100 µM (inactive)	> 100 µM (inactive)	> 100 µM (inactive)	> 100 µM (inactive)	> 100 µM (inactive)	> 100 µM (inactive)	> 100 µM (inactive)	> 100 µM (inactive)	> 100 µM (inactive)	> 100 µM (inactive)	> 100 µM	> 100 µM (inactive)	> 100 µM (inactive)	> 100 µM (inactive)	> 100 µM (inactive)
CC1=NN(C(=O)CC(=O)Nc2cccc(C)c2)C(=O)C1/N=N\c1ccc(S(=O)(=O)c2ccc(/N=N/C3C(=O)N(C(=O)CC(=O)Nc4cccc(C)c4)N=C3C)cc2)cc1 (stereo not given)	> 100 µM (inactive)	> 100 µM (inactive)	> 100 µM (inactive)	> 100 µM (inactive)	85.5 µM (inactive)	> 100 µM (inactive)	> 100 µM (inactive)	> 100 µM (inactive)	> 100 µM (inactive)	> 100 µM (inactive)	> 100 µM (inactive)	> 100 µM (inactive)	> 100 µM (inactive)	> 100 µM (inactive)	> 100 µM (inactive)	> 100 µM	> 100 µM (inactive)	> 100 µM (inactive)	> 100 µM (inactive)	> 100 µM (inactive)
CC(=O)/N=C1/N(/C=C2\C(=O)Oc3ccccc3C2=O)C(=O)/C(=C/c2ccc(OC(C)=O)cc2)N1C	> 100 µM (inactive)	> 100 µM (inactive)	> 100 µM (inactive)	> 100 µM (inactive)	> 100 µM (inactive)	> 100 µM (inactive)	> 100 µM (inactive)	> 100 µM (inactive)	> 100 µM (inactive)	> 100 µM (inactive)	> 100 µM (inactive)	> 100 µM (inactive)	> 100 µM (inactive)	> 100 µM (inactive)	> 100 µM (inactive)	> 100 µM	> 100 µM (inactive)	> 100 µM (inactive)	> 100 µM (inactive)	> 100 µM (inactive)
O=C1CCN2c3ccccc3[C@H]3Cc4cccc(c4[C@@H]2C3)CCO1	22.1 µM (inactive)	34.9 µM (inactive)	41.8 µM (inactive)	41.5 µM (inactive)	25.2 µM (inactive)	68.4 µM (inactive)	33.9 µM (inactive)	33.5 µM (inactive)	38.5 µM (inactive)	23.6 µM (inactive)	36.7 µM (inactive)	32.9 µM (inactive)	> 100 µM (inactive)	72.4 µM (inactive)	26.2 µM (inactive)	26.9 µM	35.3 µM (inactive)	36.6 µM (inactive)	44 µM (inactive)	79.3 µM (inactive)
CC(=O)Oc1ccn2nc(C)c(Br)c2c1Br	17.5 µM (inactive)	33.7 µM (inactive)	36.5 µM (inactive)	17.8 µM (inactive)	22.4 µM (inactive)	59.4 µM (inactive)	23.1 µM (inactive)	19.4 µM (inactive)	29 µM (inactive)	47.6 µM (inactive)	29.3 µM (inactive)	> 43.9 µM (inactive)	21.5 µM (inactive)	25.5 µM (inactive)	17.6 µM (inactive)	16.9 µM	18.3 µM (inactive)	20.7 µM (inactive)	17.6 µM (inactive)	21.2 µM (inactive)
COc1ccc(C(C)NNC(=O)c2ccncc2)c(OC)c1 (stereo not given)	> 100 µM (inactive)	> 100 µM (inactive)	> 100 µM (inactive)	> 100 µM (inactive)	> 100 µM (inactive)	> 100 µM (inactive)	> 100 µM (inactive)	> 100 µM (inactive)	> 100 µM (inactive)	> 100 µM (inactive)	> 100 µM (inactive)	> 100 µM (inactive)	> 100 µM (inactive)	> 100 µM (inactive)	> 100 µM (inactive)	> 100 µM	> 100 µM (inactive)	> 100 µM (inactive)	> 100 µM (inactive)	> 100 µM (inactive)
CC(=O)Nc1cc(C(=O)Nc2cc(C(=O)Nc3cc(C(=O)Nc4cc(C(=O)Nc5cc(C(=O)NCCC(=O)NCCCN(C)C)n(C)c5)n(C)c4)n(C)c3)n(C)c2)n(C)c1	> 100 µM (inactive)	23.6 µM (inactive)	63.7 µM (inactive)	28.2 µM (inactive)	27.5 µM (inactive)	> 100 µM (inactive)	> 100 µM (inactive)	46.8 µM (inactive)	> 100 µM (inactive)	> 100 µM (inactive)	31.5 µM (inactive)	> 100 µM (inactive)	> 100 µM (inactive)	71.3 µM (inactive)	34.9 µM (inactive)	> 100 µM	> 100 µM (inactive)	> 100 µM (inactive)	> 100 µM (inactive)	44.5 µM (inactive)
CCO/N=C\c1ccc2oc(-c3ccccc3)cc(=O)c2c1	0.146 µM (active)	0.0522 µM (active)	0.501 µM (active)	0.31 µM (active)	0.184 µM (active)	0.502 µM (active)	0.417 µM (active)	0.0506 µM (active)	3.03 µM (inactive)	0.0501 µM (active)	27.5 µM (inactive)	0.421 µM (active)	0.136 µM (active)	0.74 µM (active)	0.0143 µM (active)	0.0475 µM	0.476 µM (active)	0.0521 µM (active)	1.51 µM (inactive)	0.168 µM (active)
CCN(CC)CCOc1ccc(N2Cc3cc(OC)c(OC)cc3C2=O)cc1	> 100 µM (inactive)	> 100 µM (inactive)	> 100 µM (inactive)	> 100 µM (inactive)	> 100 µM (inactive)	> 100 µM (inactive)	> 100 µM (inactive)	> 100 µM (inactive)	> 100 µM (inactive)	> 100 µM (inactive)	> 100 µM (inactive)	> 100 µM (inactive)	> 100 µM (inactive)	> 100 µM (inactive)	> 100 µM (inactive)	> 100 µM	> 100 µM (inactive)	> 100 µM (inactive)	> 100 µM (inactive)	> 100 µM (inactive)
CC1=CC(=O)N(n2c(Cc3ccc(Cl)cc3)n[nH]c2=O)C1=O	46 µM (inactive)	52.4 µM (inactive)	60.5 µM (inactive)	30.5 µM (inactive)	94.2 µM (inactive)	> 100 µM (inactive)	77.6 µM (inactive)	71.3 µM (inactive)	49 µM (inactive)	> 100 µM (inactive)	35.4 µM (inactive)	> 100 µM (inactive)	36.1 µM (inactive)	70.1 µM (inactive)	44.7 µM (inactive)	44.9 µM	92.3 µM (inactive)	19.5 µM (inactive)	82 µM (inactive)	39.1 µM (inactive)
